Measured values taken from patent US20250332173A1, “COMPOUNDS AND METHODS FOR MODULATING NUCLEIC ACID SPLICING” (REMIX THERAPEUTICS INC., priority 2021, published 2025).
Structures can show the parent of a compound that is named as a salt. Where two headings read alike, the source gives them in different places.

Key:
HTT mRNA = assay: RT-qPCR splicing assay, HTT canonical junction (CJ) and alternative junction (AJ) mRNA; assay type: cell-based, human; settings: Homo sapiens; for AC50: increase in HTT alternative junction (AJ) mRNA, read-out: HTT AJ AC50
How it was run: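 Following a 24-hour incubation of A673 or K562 cells with serially diluted compound (3-fold steps, highest final 10 uM), the lysates undergo cDNA synthesis plus qPCR. Canonical and alternative junctions are each quantified against PPIA, GAPDH or GUSB.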

SMN2 mRNA = assay: RT-qPCR splicing assay, SMN2 canonical junction (CJ) mRNA; assay type: cell-based, human; settings: Homo sapiens; Table 5 panel; canonical junction qPCR; compound concentration having 50% response in CJ decrease; read-out: SMN2 IC50 (decrease in CJ mRNA levels)
How it was run: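 Exposure: 24 h, 37 °C, 11-point 3-fold dilutions from 10 uM final, DMSO at or below 0.25%, in A673 or K562 cells. Detection: cell-lysate RT-qPCR of canonical junction mRNA relative to GAPDH, GUSB or PPIA.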

[1] = test system: K562 (human chronic myelogenous leukemia) cells; assay: Cell Titer Glo 2.0 cell viability assay; assay type: cell-based; settings: Homo sapiens, K562, 72 h, K562 cells, 72 hours, Cell Titer Glo 2.0; read-out: K562 GI50
[2] = decrease in HTT canonical junction (CJ) mRNA, RT-qPCR, read-out: HTT CJ IC50
[3] = Table 5 panel, canonical junction qPCR, compound concentration having 50% response in CJ decrease, read-out: HTT IC50 (decrease in CJ mRNA levels)

| Structure (SMILES) | IC50 (HTT mRNA; [2]) [nM] | AC50 (HTT mRNA; RT-qPCR) [nM] | IC50 (HTT mRNA; [3]) [nM] | IC50 (SMN2 mRNA) [nM] | GI50 [1] [nM] |
| --- | --- | --- | --- | --- | --- |
| Cc1cn2cc(-c3cc(F)c4c(=O)n(C5CCNC6(CC6)C5)ncc4c3)cc(Cl)c2n1 (stereo not drawn) [Compound 556] | 100 to 1000 | 100 to 1000 | 100 to 1000 | < 100 | 100 to 1000 |
| Cc1cn2cc(-c3cc(O)c4c(=O)n(C5CCNC6(CC6)C5)ncc4c3)cc(Cl)c2n1 (stereo not drawn) [Compound 557] | 100 to 1000 | 100 to 1000 | 100 to 1000 | < 100 | 100 to 1000 |
| Cc1cc(-c2ccc3c(=O)n(N4CCN(C)CC4)cnc3c2)cc2cn(C)nc12 [Compound 175] | 1000 to 10000 | > 10000 | 1000 to 10000 | 1000 to 10000 | 1000 to 10000 |
| Cc1cn2nc(-c3cc4ccn([C@H]5CCNC5)c(=O)c4cc3O)cc(C)c2n1 [Compound 641, 6-(2,8-dimethylimidazo[1,2-b]pyridazin-6-yl)-7-hydroxy-2-[(3S)-pyrrolidin-3-yl]isoquinolin-1-one] | 1000 to 10000 | 100 to 1000 | 100 to 1000 | < 100 | 100 to 1000 |
| Cc1cn2nc(-c3ccc4c(=O)n(C5CCNCC5)ccc4c3)cc(Oc3ccccc3F)c2n1 [Compound 544, 6-[8-(2-fluorophenoxy)-2-methyl-imidazo[1,2-b]pyridazin-6-yl]-2-(4-piperidyl) isoquinolin-1-one; hydrochloride] | < 100 | < 100 | < 100 | < 100 | 100 to 1000 |
| Cc1cn2nc(-c3ccc4c(=O)n(C5CCNCC5)ccc4c3)cc(Oc3ccccc3)c2n1 [Compound 519, 6-(2-methyl-8-phenoxy-imidazo[1,2-b]pyridazin-6-yl)-2-(4-piperidyl)isoquinolin-1-one] | < 100 | < 100 | < 100 | < 100 | < 100 |
| CNc1cc(-c2cc(C)c3nc(C)cn3n2)cc2ccn([C@@H]3CCNC3)c(=O)c12 [Compound 648, 6-(2,8-dimethylimidazo[1,2-b]pyridazin-6-yl)-8-(methylamino)-2-[(3R)-pyrrolidin-3-yl]isoquinolin-1-one] | > 10000 | > 10000 | > 10000 | 100 to 1000 | 1000 to 10000 |
| CNC(=O)Cc1cc(-c2ccc3c(=O)n(C4CCNCC4)ccc3c2)nn2cc(C)nc12 [Compound 534, N-methyl-2-[2-methyl-6-[1-oxo-2-(4-piperidyl)-6-isoquinolyl]imidazo[1,2-b]pyridazin-8-yl]acetamide] | 1000 to 10000 | 1000 to 10000 | 1000 to 10000 | < 100 | 1000 to 10000 |
| Cc1cn2nc(-c3ccc4c(=O)n(C5CCNCC5)ccc4c3)cc(Oc3cccnc3)c2n1 [Compound 550, 6-[2-methyl-8-(3-pyridyloxy)imidazo[1,2-b]pyridazin-6-yl]-2-(4-piperidyl)isoquinolin-1-one] | < 100 | < 100 | < 100 | < 100 | < 100 |
